The molecules below were run on HCV replicon (assay: Replicon based assay of HCV replication inhibition (NPT ELISA)). Settings: Hepatitis C virus, replicon based assay of HCV replication inhibition; Table II; read-out: Activity.
Assay type: cell-based, Hepatitis C virus
Procedure, shortened: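 Huh-7 cells carrying a bicistronic HCV replicon (neo, EMCV-IRES-driven NS3–NS5B) treated overnight after seeding with usually 6 concentrations, 10 to 0.03 micromolar, for three days at 37° C without G418. Replication read as NPT level by captured ELISA; matched-DMSO wells and interferon alpha as controls.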

**Q.** How did the EC50 turn out when `CCCCCCCCOc1ccc(Nc2nc(-c3cccnc3C)cs2)cc1` [compound 442, 4-(2-methylpyridin-3-yl)-N-(4-(octyloxy)phenyl)thiazol-2-amine] was run?
**A.** Its EC50 is less than 1000 nM.

**Q.** How did the EC50 turn out when `CCCCCOc1ccc(Nc2nc(-c3cccnc3)c(C(=O)OC)s2)cc1C(F)(F)F` [compound 443, methyl 2-(3-(trifluoromethyl)-4-(pentyloxy)phenylamino)-4-(pyridin-3-yl)thiazol-5-carboxylate] was run?
**A.** Its EC50 is less than 1000 nM.

**Q.** For `CCCCCCCCOc1ccc(Nc2nc(-c3cccnc3)c(C(=O)OC)s2)cc1` [compound 444, meethyl 2-(4-(octyloxy)pheenylamino)-4-(pyridin-3-yl)thiazol-5-carboxylate], which EC50 is on record?
**A.** Its EC50 is 1000 to 10000 nM.

**Q.** `CCCCCOc1ccc(Nc2nc(-c3c(C)cc(C)nc3C)cs2)cc1C(F)(F)F` [compound 445, N-(3-(trifluoromethyl)-4-(pentyloxy)phenyl)-4-(2,4,6-trimethylpyridin-3-yl)thiazol-2-amine] was tested. Which EC50 did it give?
**A.** The EC50 was greater than 10000 nM.

**Q.** With `CCCCCCCOc1ccc(Nc2nc(-c3c(C)cc(C)nc3C)cs2)cc1` [compound 446, N-(4-(heptyloxy)phenyl)-4-(2,4,6-trimethylpyridin-3-yl)thiazol-2-amine] as the molecule, how does the EC50 read?
**A.** Its EC50 is greater than 10000 nM.

**Q.** How did the EC50 turn out when `CCCCCCCCOc1ccc(Nc2nc(-c3c(C)cc(C)nc3C)cs2)cc1` [compound 447, 4-(2,4,6-trimethylpyridin-3-yl)-N-(4-(octyloxy)phenyl)thiazol-2-amine] was run?
**A.** The EC50 was greater than 10000 nM.

**Q.** Which EC50 does the source give for `CCCCCCCOc1ccc(Nc2nc(-c3ccc(O)c(C(N)=O)c3)cs2)cc1` [compound 448, 5-(2-(4-- (heptyloxy)phenylamino)thia-zol-4-yl)-2-hydroxybenzamide] here?
**A.** Its EC50 is less than 1000 nM.

**Q.** For `CCCCCCCCOc1ccc(Nc2nc(-c3ccc(O)c(C(N)=O)c3)cs2)cc1` [compound 449, 5-(2-(4-(octyloxy)phenylamino)thia-zol-4-yl)-2-hydroxybenzamide], which EC50 is on record?
**A.** Its EC50 is less than 1000 nM.

**Q.** `CCCCCOc1ccc(Nc2nc(-c3ccc(N4CCCC4)nc3)cs2)cc1C(F)(F)F` [compound 450, N-(3-(trifluoromethyl)-4-(pentyloxy)phenyl)-4-(6-(pyrrolidin-1-yl)pyridin-3-yl)thiazol-2-amine] was tested. Which EC50 did it give?
**A.** Its EC50 is less than 1000 nM.

**Q.** `CCCCCCCc1ccc(C(=O)Nc2nc(-c3ccc(Cl)cc3)cs2)cc1` [compound 451, N-(4-(4-chlorophenyl)thiazol-2-yl)-4-heptylbenzamide] was tested. Which EC50 did it give?
**A.** Its EC50 is less than 1000 nM.

**Q.** How did the EC50 turn out when `CCCCCCOc1ccc(Nc2nc(-c3ccc(F)cc3)cs2)cc1` [compound 452, 4-(4-fluorophenyl)-N-(4-(hexyloxy)phenyl)thiazol-2-amine] was run?
**A.** Its EC50 is less than 1000 nM.

**Q.** With `Cc1ccc(-c2csc(Nc3ccc(OC4CCCC4)c(C(F)(F)F)c3)n2)cn1` [compound 453, N-(4-(cyclopentyloxy)-3-(trifluoromethyl)phenyl)-4-(6-methylpyridin-3-yl)thiazol-2-amine] as the molecule, how does the EC50 read?
**A.** Its EC50 is less than 1000 nM.

**Q.** `CCCCCN(C)c1ccc(Nc2nc(-c3ccc(C)nc3)cs2)cc1C(F)(F)F` [compound 454, 2-(trifluoromethyl)-N^1-methyl-N^4-(4-(6-methylpyridin-3-yl)thiazol-2-yl)-N^1-pentylbenzene-1,4-diamine] was tested. Which EC50 did it give?
**A.** The EC50 was less than 1000 nM.

**Q.** For `CCCCCCOc1ccc(Nc2nc(-c3ccc(C)nc3)cs2)cc1` [compound 455, N-(4-(hexyloxy)phenyl)-4-(6-methylpyridin-3-yl)thiazol-2-amine], which EC50 is on record?
**A.** The EC50 was less than 1000 nM.

**Q.** Which EC50 does the source give for `CCCCCCCCOc1ccc(Nc2nc(-c3ccc(C(=O)N(C)C)nc3)cs2)cc1` [compound 456, 5-(2-(4-(octyloxy)phenylamino)thia-zol-4-yl)-N,N-dimethylpyridine-2-carboxamide] here?
**A.** The EC50 was 1000 to 10000 nM.

**Q.** How did the EC50 turn out when `CCCCCCCOc1ccc(Nc2nc(-c3ccc(C(=O)N(C)C)nc3)cs2)cc1` [compound 457, 5-(2-(4-(heptyloxy)phenylamino)thia-zol-4-yl)-N,N-dimethylpyridine-2-carboxamide] was run?
**A.** The EC50 was 1000 to 10000 nM.

**Q.** Which EC50 does the source give for `CCCCCCCCOc1ccc(Nc2nc(-c3ccc(O)cc3)cs2)cc1` [compound 458, 4-(2-(4-(octyloxy)phenylamino)thia-zol-4-yl)phenol] here?
**A.** The EC50 was less than 1000 nM.

**Q.** With `CCCCCOc1ccc(Nc2nc(-c3ccc(Br)nc3)cs2)cc1C(F)(F)F` [compound 459, 4-(6-bromopyridin-3-yl)-N-(3-(trifluoromethyl)-4-(pentyloxy)phenyl)thiazol-2-amine] as the molecule, how does the EC50 read?
**A.** Its EC50 is less than 1000 nM.

**Q.** `CCCCCOc1ccc(Nc2nc(-c3ccc(Cl)nc3)cs2)cc1C(F)(F)F` [compound 460, 4-(6-chloropyridin-3-yl)-N-(3-(trifluoromethyl)-4-(pentyloxy)phenyl)thiazol-2-amine] was tested. Which EC50 did it give?
**A.** The EC50 was less than 1000 nM.

**Q.** `CCCCCCCCOc1ccc(Nc2nc(-c3ccc(OCC(=O)OCC)cc3)cs2)cc1` [compound 461, ethyl 2-(4-(2-(4-(octyloxy)phenylamino)thia-zol-4-yl)phenoxy)acetate] was tested. Which EC50 did it give?
**A.** The EC50 was less than 1000 nM.

**Q.** How did the EC50 turn out when `CCCCCCCCOc1ccc(Nc2nc(-c3ccc(OCC(=O)O)cc3)cs2)cc1` [compound 462, 2-(4-(2-(4-(octyloxy)phenylamino)thia-zol-4-yl)phenoxy)acetic acid] was run?
**A.** The EC50 was less than 1000 nM.

**Q.** For `CCCCCCCCOc1ccc(Nc2nc(-c3ccc(NC)nc3)cs2)cc1` [compound 463, 5-(2-(4-(octyloxy)phenylamino)thia-zol-4-yl)-N-meethylpyridin-2-amine], which EC50 is on record?
**A.** The EC50 was less than 1000 nM.

**Q.** With `CCCCCCCCOc1ccc(Nc2nc(O)cs2)cc1` [compound 464, 2-(4-(octyloxy)phenylamino)thia-zol-4-ol] as the molecule, how does the EC50 read?
**A.** The EC50 was 1000 to 10000 nM.

**Q.** With `CC(=O)OCCCCCCN(C)c1ccc(Nc2nc(-c3cccnc3)cs2)cc1C(F)(F)F` [compound 465] as the molecule, how does the EC50 read?
**A.** Its EC50 is 1000 to 10000 nM.

**Q.** With `CC(=O)OCCCCCCN(C)c1ccc(Nc2nc(-c3ccc(C)nc3)cs2)cc1C(F)(F)F` [compound 466] as the molecule, how does the EC50 read?
**A.** Its EC50 is 1000 to 10000 nM.

**Q.** With `CC(=O)OCCCCCCN(C)c1ccc(Nc2nc(-c3ccc(F)cc3)cs2)cc1C(F)(F)F` [compound 467] as the molecule, how does the EC50 read?
**A.** Its EC50 is greater than 10000 nM.

**Q.** With `CCCCCCCCOc1ccc(Nc2nc(-c3ccc(C(=O)N(C)C)nc3)cs2)cn1` [compound 468, 5-(2-(6-(octyloxy)pyridin-3-ylamino)thiazol-4-yl)-N,N-dimethylpyridine-2-carboxamide] as the molecule, how does the EC50 read?
**A.** Its EC50 is 1000 to 10000 nM.

**Q.** `CCCCCCCCOc1ccc(Nc2nc(-c3cccnc3)cs2)cn1` [compound 469, 6-(octyloxy)-N-0(4-(pyridin-3-yl)thiazol-2-yl)pyridin-3-amine] was tested. Which EC50 did it give?
**A.** The EC50 was 1000 to 10000 nM.

**Q.** `CN(CCCCCCO)c1ccc(Nc2nc(-c3ccc(F)cc3)cs2)cc1C(F)(F)F` [compound 470, 6-(N-(4-(4-(4-fluorophenyl)thiazol-2-ylamino)-2-(trifluoromethyl)phenyl)-N-methylamino)hexan-1-ol] was tested. Which EC50 did it give?
**A.** The EC50 was 1000 to 10000 nM.

**Q.** `CCCCCCCCOc1ccc(Nc2nc(-c3ccc(C)nc3)cs2)cn1` [compound 473, N-(4-(6-methylpyridin-3-yl)thiazol-2-yl)-6-(octyloxy)pyridin-3-amine] was tested. Which EC50 did it give?
**A.** The EC50 was less than 1000 nM.

**Q.** `CCCCCCCCOc1ccc(Nc2nc(-c3ccc(F)c(F)c3)cs2)cn1` [compound 474, N-(4-(3,4-difluorophenyl)thiazol-2-yl)-6-(octyloxy)pyridin-3-amine] was tested. Which EC50 did it give?
**A.** The EC50 was less than 1000 nM.

**Q.** For `CCCCCCCCOc1ccc(Nc2nc(-c3ccc(F)cc3)cs2)cn1` [compound 475, N-(4-(4-fluorophenyl)thiazol-2-yl)-6-(octyloxy)pyridin-3-amine], which EC50 is on record?
**A.** The EC50 was less than 1000 nM.

Same assay, conditions: replicon based assay of HCV replication inhibition; Table II; read-out: Activity

**Q.** Which EC50 does the source give for `CCCCCCCCOc1ccc(Nc2nc(-c3ccc(C(=O)N(C)C)nc3)cs2)cn1` [compound 471, 5-(2-(6-(octyloxy)pyridin-3-ylamino)thiazol-4-yl)-N,N-dimethylpyridine-2-carboxamide] here?
**A.** The EC50 was less than 1000 nM.

**Q.** How did the EC50 turn out when `CCCCCCCCOc1ccc(Nc2nc(-c3cccnc3)cs2)cn1` [compound 472, 6-(octyloxy)-N-(4-(pyridin-3-yl)thiazol-2-yl)pyridin-3-amine] was run?
**A.** The EC50 was less than 1000 nM.

From patent publication US8088806B2 (Achillion Pharmaceuticals, Inc., priority 2005, dated 2012)
